Drawing on ChEMBL document CHEMBL1909046, “DrugMatrix in vitro pharmacology data”, this text covers IC50 and Ki for 18 molecules.

The target of test [1] is T1, Androgen receptor (Rattus norvegicus, UniProt P15207). Note: in other assays of this panel Not Active means under 50% inhibition at 10 µM.
T1 sequence (P15207 whole entry): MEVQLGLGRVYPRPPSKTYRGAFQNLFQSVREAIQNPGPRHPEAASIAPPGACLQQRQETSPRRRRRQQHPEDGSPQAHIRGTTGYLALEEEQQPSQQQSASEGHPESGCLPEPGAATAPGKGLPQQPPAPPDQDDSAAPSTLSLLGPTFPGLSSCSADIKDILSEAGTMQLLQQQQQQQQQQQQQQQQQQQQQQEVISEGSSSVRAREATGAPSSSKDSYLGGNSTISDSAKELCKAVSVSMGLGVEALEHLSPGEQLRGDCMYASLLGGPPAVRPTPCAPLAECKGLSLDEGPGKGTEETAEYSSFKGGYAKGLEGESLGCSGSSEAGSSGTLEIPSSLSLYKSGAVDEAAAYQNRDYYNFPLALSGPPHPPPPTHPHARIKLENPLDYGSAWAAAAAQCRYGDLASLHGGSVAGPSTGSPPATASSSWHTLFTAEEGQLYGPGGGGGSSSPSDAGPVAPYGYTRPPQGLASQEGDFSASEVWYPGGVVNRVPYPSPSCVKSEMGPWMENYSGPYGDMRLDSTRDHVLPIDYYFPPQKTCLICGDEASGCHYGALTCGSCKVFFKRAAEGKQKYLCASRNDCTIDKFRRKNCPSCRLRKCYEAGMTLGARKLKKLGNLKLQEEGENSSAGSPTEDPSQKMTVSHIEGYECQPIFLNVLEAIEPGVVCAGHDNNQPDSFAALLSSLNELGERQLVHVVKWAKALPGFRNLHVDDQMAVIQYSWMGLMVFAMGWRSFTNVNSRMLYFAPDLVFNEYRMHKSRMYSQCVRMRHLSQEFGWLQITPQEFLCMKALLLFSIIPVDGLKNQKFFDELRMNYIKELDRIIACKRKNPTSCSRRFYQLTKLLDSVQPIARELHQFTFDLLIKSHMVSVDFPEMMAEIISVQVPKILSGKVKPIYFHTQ

In test [2] the target is Sigma non-opioid intracellular receptor 1 (Homo sapiens, UniProt Q99720). Kind of test: DRUGMATRIX: Sigma1 radioligand binding (ligand: [3H] Haloperidol). The test is classed as cell membranes, Jurkat, Membrane. As to conditions: Not Active = under 50% inhibition at 10 µM.
Test [3] in a line: DRUGMATRIX: beta-Lactamase enzyme inhibition (substrate: Nitrocefin). More on the design: species or system Bacillus cereus. As to conditions: Not Active = under 50% inhibition at 10 µM.
Test [4] can be described thus: DRUGMATRIX: Calcium Channel Type L, Benzothiazepine radioligand binding (ligand: [3H] Diltiazem). The test is classed as cell membranes, Rattus norvegicus, Wistar, Brain, Membrane. To be noted: Not Active = under 50% inhibition at 10 µM.
A short description of test [5]: DRUGMATRIX: Glutamate, NMDA, Agonism radioligand binding (ligand: [3H] CGP-39653). To be noted: Not Active = under 50% inhibition at 10 µM. In kind it is cell membranes, Rattus norvegicus, Wistar, Cerebral cortex, Membrane.
Test [6] can be described thus: DRUGMATRIX: Glutamate, NMDA, Phencyclidine radioligand binding (ligand: [3H] TCP). In kind it is cell membranes, Rattus norvegicus, Wistar, Cerebral cortex, Membrane. As to conditions: Not Active = under 50% inhibition at 10 µM.
The target in test [7] is Cytochrome P450 2D6 (Homo sapiens, UniProt P10635). Note: in other assays of this panel Not Active means under 50% inhibition at 10 µM.
Chain of Cytochrome P450 2D6 (P10635 whole entry): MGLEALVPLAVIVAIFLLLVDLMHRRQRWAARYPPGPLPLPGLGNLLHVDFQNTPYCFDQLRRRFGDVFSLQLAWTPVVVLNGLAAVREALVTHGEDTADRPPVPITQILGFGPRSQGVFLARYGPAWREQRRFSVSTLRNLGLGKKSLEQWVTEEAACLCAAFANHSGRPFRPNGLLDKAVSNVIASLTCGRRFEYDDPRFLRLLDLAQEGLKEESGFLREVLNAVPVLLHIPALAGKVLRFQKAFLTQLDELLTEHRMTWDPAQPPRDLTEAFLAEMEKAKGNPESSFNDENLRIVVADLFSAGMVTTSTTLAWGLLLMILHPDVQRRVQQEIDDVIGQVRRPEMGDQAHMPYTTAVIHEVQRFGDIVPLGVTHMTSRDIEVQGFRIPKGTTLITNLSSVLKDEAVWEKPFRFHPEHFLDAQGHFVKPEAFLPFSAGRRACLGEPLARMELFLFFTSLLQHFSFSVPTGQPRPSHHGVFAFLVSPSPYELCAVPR

Chain of Sigma non-opioid intracellular receptor 1 (Q99720 whole entry): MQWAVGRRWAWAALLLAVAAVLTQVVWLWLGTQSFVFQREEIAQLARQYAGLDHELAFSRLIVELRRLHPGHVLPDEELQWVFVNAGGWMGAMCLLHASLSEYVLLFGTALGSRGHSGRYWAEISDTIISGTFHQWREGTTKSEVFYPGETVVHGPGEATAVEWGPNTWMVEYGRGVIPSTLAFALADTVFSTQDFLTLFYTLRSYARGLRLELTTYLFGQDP

In the case of `Cc1c(C)c2c(c(C)c1O)CCC(C)(CN1CCN(c3cc(N4CCCC4)nc(N4CCCC4)n3)CC1)O2` (configuration not stated), the concentration for half-maximal inhibition (IC50) – broadly, the concentration that inhibits the measured activity by half – is “Not Active” in test [1]; “Not Active” in test [2] (jurkat); “Not Active” in test [3]; 1650 nM in test [4] (read-out: IC50); “Not Active” in test [5]; “Not Active” in test [6]. Moreover, the Ki (usually a dissociation constant, usually derived from enzyme kinetics or from competition with a known ligand) in test [3] was “Not Active”; in test [4] (read-out: Ki), 1470 nM; in test [5], “Not Active”; in test [6], “Not Active”.

Regarding `CN(C)CCOC(c1ccccc1)c1ccccc1` [DIPHENHYDRAMINE], the IC50 result in test [1] and in test [2] (jurkat) was “Not Active” in each case.

For the molecule `CCN(CC)CCOc1ccc(/C(=C(/Cl)c2ccccc2)c2ccccc2)cc1` [ENCLOMIPHENE], the half-inhibitory concentration (IC50) entry in test [1] was “Not Active”; in test [7] it was 10000 nM.

Take `Cc1ccc(NC(=O)c2ccc(CN3CCN(C)CC3)cc2)cc1Nc1nccc(-c2cccnc2)n1` [IMATINIB]: the IC50 result in test [1] and in test [2] (jurkat) was “Not Active” each time.

`N#Cc1ccc(C(c2ccc(C#N)cc2)n2cncn2)cc1` [LETROZOLE]: the IC50 entry in test [1], in test [2] (jurkat), in test [3], in test [4], in test [5] and in test [6] was “Not Active” each time. Further, the Ki result in test [3], in test [4], in test [5] and in test [6] was “Not Active” throughout.

As to `CCN1CCC[C@H]1CNC(=O)c1cc(S(N)(=O)=O)ccc1OC` [LEVOSULPIRIDE], the IC50 entry in test [1], in test [2] (jurkat), in test [3], in test [4], in test [5] and in test [6] was “Not Active” in each case. Further, the Ki entry in test [3], in test [4], in test [5] and in test [6] was “Not Active” throughout.

Take `CCN(CC)CC(=O)Nc1c(C)cccc1C` [LIDOCAINE]: the IC50 result in test [1], in test [2] (jurkat), in test [3], in test [4], in test [5] and in test [6] was “Not Active” throughout. The Ki result in test [3], in test [4], in test [5] and in test [6] was “Not Active” in each case.

With `O=C1Nc2ccc(Cl)cc2C(c2ccccc2Cl)=NC1O` (configuration not stated) [LORAZEPAM], the IC50 entry in test [1], in test [2] (jurkat), in test [3], in test [4], in test [5] and in test [6] was “Not Active” throughout. The inhibition constant Ki entry in test [3], in test [4], in test [5] and in test [6] was “Not Active” in each case.

As to `CO[C@@H]1[C@@H](OC)[C@H](C)[C@@](O)(CC(=O)O)O[C@H]1[C@H](C)[C@H]1O[C@@]2(CC[C@@](C)([C@H]3CC[C@@](C)([C@@H]4O[C@@H]([C@H]5O[C@](C)(O)[C@H](C)C[C@@H]5C)C[C@@H]4O[C@@H]4C[C@H](OC)[C@@H](OC)[C@H](C)O4)O3)O2)C[C@H](O)[C@H]1C` [MADURAMICIN ACID], the IC50 result in test [2] (jurkat) is “Not Active”; in test [7] it was 1000 nM; in test [3], “Not Active”; in test [4], “Not Active”; in test [5], “Not Active”; in test [6], “Not Active”. In addition, the Ki result in test [3], in test [4], in test [5] and in test [6] was “Not Active” each time.

Take `COc1c2occc2cc2ccc(=O)oc12` [METHOXSALEN]: the IC50 result in test [1], in test [2] (jurkat), in test [3], in test [4], in test [5] and in test [6] was “Not Active” in each case. Moreover, the Ki entry in test [3], in test [4], in test [5] and in test [6] was “Not Active” each time.

As for `Nc1cc(N2CCCCC2)nc(N)[n+]1[O-]` [MINOXIDIL], the IC50 entry in test [1], in test [2] (jurkat), in test [3], in test [4], in test [5] and in test [6] was “Not Active” each time. Also, the Ki entry in test [3], in test [4], in test [5] and in test [6] was “Not Active” throughout.

With `CCCCOc1cc(CC2CNC(=O)N2)ccc1OC` (configuration not stated) [RO-201724], the IC50 result in test [1], in test [2] (jurkat), in test [3], in test [4], in test [5] and in test [6] was “Not Active” throughout. Besides, the inhibition constant (Ki) entry in test [3], in test [4], in test [5] and in test [6] was “Not Active” throughout.

For the molecule `CN(C/C=C/C#CC(C)(C)C)Cc1cccc2ccccc12` [TERBINAFINE], the half-maximal inhibitory concentration (IC50) in test [2] (read-out: IC50) is 560 nM; in test [7], 200 nM; in test [3] it was “Not Active”; in test [4], “Not Active”; in test [5] it was “Not Active”; in test [6], “Not Active”. In addition, the inhibitory constant (Ki) in test [2] (read-out: Ki) is 235 nM; in test [3], “Not Active”; in test [4], “Not Active”; in test [5], “Not Active”; in test [6], “Not Active”.

For the molecule `Clc1ccccc1CN1CCc2sccc2C1` [TICLOPIDINE], the IC50 entry is “Not Active” in test [1]; 426 nM in test [2] (read-out: IC50); “Not Active” in test [3]; “Not Active” in test [4]; “Not Active” in test [5]; “Not Active” in test [6]. In addition, the Ki in test [2] (read-out: Ki) was 179 nM; in test [3], “Not Active”; in test [4], “Not Active”; in test [5] it was “Not Active”; in test [6] it was “Not Active”.

For the molecule `NC1CCN(c2nc3c(cc2F)c(=O)c(C(=O)O)cn3-c2ccc(F)cc2F)C1` (configuration not stated) [TOSUFLOXACIN], the 50% inhibitory concentration (IC50) entry in test [1], in test [2] (jurkat), in test [3], in test [4], in test [5] and in test [6] was “Not Active” each time. Further, the Ki entry in test [3], in test [4], in test [5] and in test [6] was “Not Active” throughout.

On to `CC(c1cc2ccccc2s1)N(O)C(N)=O` (configuration not stated) [ZILEUTON], for which the IC50 result in test [1], in test [2] (jurkat), in test [3], in test [4], in test [5] and in test [6] was “Not Active” throughout. Moreover, the Ki result in test [3], in test [4], in test [5] and in test [6] was “Not Active” each time.

Take MANGANESE CHLORIDE ANHYDROUS: the IC50 result in test [1], in test [2] (jurkat), in test [3], in test [4], in test [5] and in test [6] was “Not Active” each time. Moreover, the Ki result in test [1], in test [2] (jurkat), in test [3], in test [4], in test [5] and in test [6] was “Not Active” in each case.

On to SODIUM ORTHOVANAD, for which the IC50 entry in test [1], in test [2] (jurkat), in test [3], in test [4], in test [5] and in test [6] was “Not Active” each time. Besides, the Ki entry in test [1], in test [2] (jurkat), in test [3], in test [4], in test [5] and in test [6] was “Not Active” each time.
